Reference: the NIST ThermoML archive (doi:10.1016/j.jct.2004.12.005)
± gives the expanded uncertainty stated by the source.

Experiments:
[1] = 298.15 K; 101.33 kPa; Liquid
[2] = excess molar enthalpy (molar enthalpy of mixing); xn = mol fraction of the nth substance listed; conditions: 298.15 K, 101.3 kPa, Liquid, Flow calorimetry

COC(C)(C)C [2-methoxy-2-methylpropane]
Conditions | mass density [kg/m3]
[1] | 735.99 ± 0.73

COC(C)(C)C [2-methoxy-2-methylpropane] + C1CCOC1
[2]
Conditions | excess molar enthalpy [kcal/mol]
x2 = 0.1015 | 0.0082 ± 0.000311
x2 = 0.1924 | 0.0143 ± 0.000382
x2 = 0.2745 | 0.0186 ± 0.00043
x2 = 0.3482 | 0.0216 ± 0.000454
x2 = 0.4173 | 0.0234 ± 0.000478
x2 = 0.4784 | 0.0244 ± 0.000478
x2 = 0.5358 | 0.0248 ± 0.000478
x2 = 0.5883 | 0.0243 ± 0.000478
x2 = 0.6368 | 0.0233 ± 0.000478
x2 = 0.6821 | 0.0221 ± 0.000454
x2 = 0.7242 | 0.0206 ± 0.000454
x2 = 0.7626 | 0.0188 ± 0.00043
x2 = 0.7994 | 0.0168 ± 0.000406
x2 = 0.8338 | 0.0146 ± 0.000382
x2 = 0.8655 | 0.0123 ± 0.000359
x2 = 0.8799 | 0.0112 ± 0.000359
x2 = 0.9246 | 0.00739 ± 0.000311
x2 = 0.9507 | 0.00473 ± 0.000287
x2 = 0.9761 | 0.00241 ± 0.000263

CC1CCCO1 (configuration not stated) [2-methyltetrahydrofuran]
Conditions | mass density [kg/m3]
[1] | 848.1 ± 0.64

CC1CCCO1 (configuration not stated) [2-methyltetrahydrofuran] + COC(C)(C)C
[2]
Conditions | excess molar enthalpy [kcal/mol]
x1 = 0.0499 | 0.00159 ± 0.000263
x1 = 0.0998 | 0.00298 ± 0.000263
x1 = 0.1498 | 0.00424 ± 0.000287
x1 = 0.2002 | 0.00541 ± 0.000287
x1 = 0.2501 | 0.00635 ± 0.000311
x1 = 0.3004 | 0.00717 ± 0.000311
x1 = 0.3504 | 0.00788 ± 0.000311
x1 = 0.4001 | 0.00821 ± 0.000335
x1 = 0.4501 | 0.00859 ± 0.000335
x1 = 0.5007 | 0.00875 ± 0.000335
x1 = 0.5495 | 0.00884 ± 0.000335
x1 = 0.5999 | 0.00859 ± 0.000335
x1 = 0.6501 | 0.00815 ± 0.000311
x1 = 0.7002 | 0.00753 ± 0.000311
x1 = 0.7508 | 0.00673 ± 0.000311
x1 = 0.8 | 0.00582 ± 0.000311
x1 = 0.8509 | 0.00473 ± 0.000287
x1 = 0.9 | 0.00338 ± 0.000263
x1 = 0.95 | 0.00184 ± 0.000263

CCCCCCCCCCCC [dodecane]
Conditions | mass density [kg/m3]
[1] | 745.38 ± 0.78

C1CCOC1 [tetrahydrofuran]
Conditions | mass density [kg/m3]
[1] | 882.09 ± 0.6
